Test results taken from patent US5089623A, “Certain imidate insecticides” (Imperial Chemical Industries Plc, priority 1990, dated 1992).

Tests used:
Type in all cases: in vivo
[1] = test system: Cabbage Looper [Trichoplusia ni (Hubner)]; test: Cabbage looper test (CL); settings: second-instar larvae, 3-5 days, percent in solution
[2] = test system: Tobacco Budworm [Heliothis virescens (Fabricius)] eggs; test: Tobacco budworm egg test (TBW-E); settings: percent in solution
Source text: Eggs: Paper towel patches of 2-day old eggs of the tobacco budworm were dipped in acetone solutions of the test compound and placed in petri dishes containing a portion of larval rearing medium. […] Test concentrations ranged from 0.1% downward.

[3] = test system: Housefly [Musca domestica]; test: Housefly insecticidal test (HF); settings: per 25 female houseflies, 48 hours

CC(C)C(=Nc1cccc(C(F)(F)F)c1)OCc1cccc(OCc2ccc(F)cc2)c1 [Compound 489]
LC50 CL [1]: < 0.1% | LC50 TBW E [2]: > 0.1% | LC50 HF [3]: > 100 µg

COc1ccc(C)cc1N=C(OCc1cccc(Oc2ccccc2)c1)C(C)C [Compound 150]
LC50 CL [1]: 0.01% | LC50 TBW E [2]: > 0.1% | LC50 HF [3]: 89 µg

CC(C)C(=Nc1ccc(F)c(F)c1)OCc1cccc(Oc2ccc(C#N)cc2)c1 [Compound 212]
LC50 CL [1]: 0.0005% | LC50 TBW E [2]: 0.045% | LC50 HF [3]: 20 µg

COc1cc(N=C(OCc2cccc(Oc3ccccc3)c2)C(C)C)cc(OC)c1OC [Compound 248]
LC50 CL [1]: 0.02% | LC50 TBW E [2]: > 0.1% | LC50 HF [3]: 40 µg

CC(C)C(=Nc1ccc(F)c(Cl)c1)OCc1cccc(Oc2ccncc2)c1 [Compound 470]
LC50 CL [1]: 0.02% | LC50 TBW E [2]: > 0.1% | LC50 HF [3]: 25 µg

CC(C)C(=Nc1cc(C(F)(F)F)cc(C(F)(F)F)c1)OCc1cccc(Oc2ccccc2)c1 [Compound 78]
LC50 CL [1]: 0.0025% | LC50 TBW E [2]: > 0.1% | LC50 HF [3]: > 100 µg

CC(C)(Cl)C(=Nc1ccc(F)c(Cl)c1)OCc1cccc(Oc2ccc(F)cc2)c1 [Compound 224]
LC50 CL [1]: 0.001% | LC50 TBW E [2]: > 0.1% | LC50 HF [3]: > 100 µg

CC(C)C(=Nc1cccc(C(F)(F)F)c1)OCc1cccc(Oc2ccncc2)c1 [Compound 469]
LC50 CL [1]: 0.02% | LC50 TBW E [2]: > 0.1% | LC50 HF [3]: 40 µg

CC(C)C(=Nc1ccc(F)cc1)OCc1coc(Cc2ccccc2)c1 [Compound 491]
LC50 CL [1]: 0.0028% | LC50 TBW E [2]: 0.08% | LC50 HF [3]: 9 µg

CCCC(=Nc1ccc(F)c(Cl)c1)OCc1cccc(Oc2ccccc2)c1 [Compound 123]
LC50 CL [1]: 0.012% | LC50 TBW E [2]: > 0.1% | LC50 HF [3]: > 100 µg

CC(C)C(=Nc1ccc2c(c1)OCO2)OCc1cccc(Oc2ccc(C(F)(F)F)cc2)c1 [Compound 246]
LC50 CL [1]: 0.004% | LC50 TBW E [2]: > 0.1% | LC50 HF [3]: 60 µg

COc1cc(N=C(OCc2cccc(Oc3ccccc3)c2)C(C)C)c(OC)cc1Cl [Compound 99]
LC50 CL [1]: 0.016% | LC50 TBW E [2]: > 0.1% | LC50 HF [3]: > 100 µg

CC(C)(C)C(=Nc1cccc(Cl)c1)OCc1cccc(Oc2ccccc2)c1 [Compound 12]
LC50 CL [1]: 0.008% | LC50 TBW E [2]: > 0.1% | LC50 HF [3]: > 100 µg

CC(=O)c1cccc(N=C(OCc2cccc(Oc3ccccc3)c2)C(C)C)c1 [Compound 170]
LC50 CL [1]: 0.1% | LC50 TBW E [2]: > 0.1% | LC50 HF [3]: 37 µg

CC(C)C(=Nc1ccc(C#N)c(F)c1)OCc1cccc(Oc2ccc(F)cc2)c1 [Compound 222]
LC50 CL [1]: 0.0015% | LC50 TBW E [2]: > 0.1% | LC50 HF [3]: 32 µg

CC(C)C(=Nc1ccc(Cl)c(Cl)c1)OCc1cccc(Oc2ccc(F)c(F)c2)c1 [Compound 218]
LC50 CL [1]: 0.0003% | LC50 TBW E [2]: 0.025% | LC50 HF [3]: 25 µg

CC(C)C(=Nc1ccc(F)c(Cl)c1)OCc1cccc(Oc2cc(F)cc(F)c2)c1 [Compound 215]
LC50 CL [1]: 0.00075% | LC50 TBW E [2]: > 0.1% | LC50 HF [3]: 75 µg

CCC(CC)C(=Nc1ccc(Cl)cc1)OCc1cccc(Oc2ccc(F)cc2)c1 [Compound 290]
LC50 CL [1]: 0.017% | LC50 TBW E [2]: > 0.1% | LC50 HF [3]: > 100 µg

CC(C)C(=Nc1ccc2c(c1)OCO2)OCc1c(F)c(F)c(F)c(F)c1F [Compound 464]
LC50 CL [1]: 0.08% | LC50 TBW E [2]: > 0.1% | LC50 HF [3]: > 100 µg

CCOC(=O)c1cccc(N=C(OCc2cccc(Oc3ccccc3)c2)C(C)(C)C)c1 [Compound 168]
LC50 CL [1]: 0.1% | LC50 TBW E [2]: > 0.1% | LC50 HF [3]: > 100 µg

CC(C)C(=Nc1ccc2c(c1)CCO2)OCc1cccc(Oc2ccccc2)c1 [Compound 243]
LC50 CL [1]: 0.005% | LC50 TBW E [2]: > 0.1% | LC50 HF [3]: 9 µg

COc1ccc(N=C(OCc2cccc(Oc3ccc(F)cc3)c2)C(C)C)cc1Cl [Compound 110]
LC50 CL [1]: 0.007% | LC50 TBW E [2]: 0.04% | LC50 HF [3]: 26 µg

CC(C)C(=Nc1ccc(C(C)(C)C)cc1)OCc1cccc(Oc2ccc(F)cc2)c1 [Compound 235]
LC50 CL [1]: 0.004% | LC50 TBW E [2]: > 0.1% | LC50 HF [3]: > 100 µg

Cc1cc(Br)ccc1N=C(OCc1cccc(Oc2ccccc2)c1)C(C)C [Compound 133]
LC50 CL [1]: 0.005% | LC50 TBW E [2]: 0.1% | LC50 HF [3]: 66 µg

CC(C)C(=Nc1ccc2c(c1)OCO2)OCc1cccc(Oc2ccccc2F)c1 [Compound 183]
LC50 CL [1]: 0.00075% | LC50 TBW E [2]: 0.075% | LC50 HF [3]: 10 µg

Cc1ccc(C)c(N=C(OCc2cccc(Oc3ccccc3)c2)C(C)C)c1 [Compound 250]
LC50 CL [1]: 0.004% | LC50 TBW E [2]: 0.03% | LC50 HF [3]: 38 µg

CCC(=Nc1ccc(CC)cc1)OCc1cccc(Oc2ccccc2)c1 [Compound 157]
LC50 CL [1]: 0.009% | LC50 TBW E [2]: > 0.1% | LC50 HF [3]: 25 µg

COCc1c(F)c(F)c(COC(=Nc2ccc3c(c2)OCO3)C(C)C)c(F)c1F [Compound 501]
LC50 CL [1]: 0.00045% | LC50 TBW E [2]: > 0.1% | LC50 HF [3]: 20 µg

CCC(C)C(=Nc1ccc(C(C)C)cc1)OCc1cccc(Oc2ccccc2)c1 (stereo not drawn) [Compound 317]
LC50 CL [1]: 0.0045% | LC50 TBW E [2]: 0.03% | LC50 HF [3]: > 100 µg

CC(C)C(=Nc1cccc(C(F)(F)F)c1)OCc1ccc(OCc2ccccc2)cc1 [Compound 476]
LC50 CL [1]: 0.015% | LC50 TBW E [2]: > 0.1% | LC50 HF [3]: > 100 µg

CC(C)C(=Nc1ccc(Cl)cc1Cl)OCc1cccc(Oc2ccccc2)c1 [Compound 311]
LC50 CL [1]: 0.0017% | LC50 TBW E [2]: 0.1% | LC50 HF [3]: 22 µg

CC(C)C(=Nc1ccc(F)cc1)OCc1cccc(Oc2ccc(F)cc2)c1 [Compound 197]
LC50 CL [1]: 0.0004% | LC50 TBW E [2]: 0.05% | LC50 HF [3]: > 100 µg

CC(C)C(=Nc1c(Cl)cc(Cl)cc1Cl)OCc1cccc(Oc2ccccc2)c1 [Compound 19]
LC50 CL [1]: < 0.1% | LC50 TBW E [2]: > 0.1% | LC50 HF [3]: > 100 µg

CC(C)CC(=Nc1ccc(C(C)C)cc1)OCc1cccc(Oc2ccc(F)cc2)c1 [Compound 329]
LC50 CL [1]: 0.033% | LC50 TBW E [2]: > 0.1% | LC50 HF [3]: 7 µg

CCC(C)C(=Nc1ccc2c(c1)OCO2)OCc1cccc(Oc2ccccc2)c1 (stereo not drawn) [Compound 185]
LC50 CL [1]: 0.0006% | LC50 TBW E [2]: 0.075% | LC50 HF [3]: 13 µg

Cc1ccc(Oc2cccc(COC(=Nc3ccc(F)c(Cl)c3)C(C)C)n2)cc1 [Compound 494]
LC50 CL [1]: 0.003% | LC50 TBW E [2]: > 0.1% | LC50 HF [3]: 34 µg

COc1ccc(Cl)cc1N=C(OCc1cccc(Oc2ccccc2)c1)C(C)C [Compound 264]
LC50 CL [1]: 0.03% | LC50 TBW E [2]: > 0.1% | LC50 HF [3]: > 100 µg

CC(C)C(=Nc1cccc(Cl)c1)OCc1cccc(Oc2ccc(Br)cc2)c1 [Compound 260]
LC50 CL [1]: 0.00075% | LC50 TBW E [2]: > 0.1% | LC50 HF [3]: 22 µg

CC(C)C(=Nc1ccc(C(C)(C)C)cc1)OCc1cccc(Oc2ccc(Cl)cc2)n1 [Compound 497]
LC50 CL [1]: 0.0075% | LC50 TBW E [2]: > 0.1% | LC50 HF [3]: > 100 µg

Cc1c(COC(=Nc2ccc(F)cc2)C(C)C)cccc1-c1ccccc1 [Compound 458]
LC50 CL [1]: 0.007% | LC50 TBW E [2]: > 0.05% | LC50 HF [3]: 100 µg

CC(C)C(=Nc1ccc(Cl)c(Cl)c1)OCc1cccc(Oc2cccc(F)c2)c1 [Compound 40]
LC50 CL [1]: 0.0025% | LC50 TBW E [2]: 0.08% | LC50 HF [3]: 36 µg

COc1cc(N=C(OCc2cccc(Oc3ccccc3)c2)C(C)C)cc(C(F)(F)F)c1 [Compound 76]
LC50 CL [1]: 0.002% | LC50 TBW E [2]: 0.05% | LC50 HF [3]: 20 µg

CC(C)C(=Nc1ccc2c(c1)OC(C)(C)O2)OCc1cccc(Oc2ccc(Cl)cc2)n1 [Compound 468]
LC50 CL [1]: > 0.1% | LC50 TBW E [2]: > 0.1% | LC50 HF [3]: 50 µg

CC1CC1C(=Nc1ccc(Cl)cc1)OCc1cccc(Oc2ccccc2)c1 (stereo not drawn) [Compound 15]
LC50 CL [1]: 0.025% | LC50 TBW E [2]: > 0.01% | LC50 HF [3]: > 100 µg

CCC(C)C(=Nc1ccc(Cl)c(Cl)c1)OCc1cccc(Oc2ccccc2)c1 (stereo not drawn) [Compound 39]
LC50 CL [1]: 0.0023% | LC50 TBW E [2]: > 0.1% | LC50 HF [3]: > 100 µg

CCCC(=Nc1ccc(Cl)c(Cl)c1)OCc1cccc(Oc2ccccc2)c1 [Compound 38]
LC50 CL [1]: 0.006% | LC50 TBW E [2]: 0.05% | LC50 HF [3]: 33 µg

CC(C)C(=Nc1ccc(F)c(F)c1)OCc1cccc(Oc2ccc(Br)cc2)c1 [Compound 275]
LC50 CL [1]: 0.00012% | LC50 TBW E [2]: 0.045% | LC50 HF [3]: 21 µg

CC(C)C(=Nc1ccc(Br)c(Br)c1)OCc1cccc(Oc2ccccc2)c1 [Compound 252]
LC50 CL [1]: 0.0035% | LC50 TBW E [2]: 0.04% | LC50 HF [3]: 34 µg

CC(C)(C)C(=Nc1cccc(Br)c1)OCc1cccc(Oc2ccccc2)c1 [Compound 134]
LC50 CL [1]: 0.015% | LC50 TBW E [2]: > 0.1% | LC50 HF [3]: > 100 µg

CC(C)(F)C(=Nc1cccc(C(F)(F)F)c1)OCc1cccc(Oc2ccc(F)cc2)c1 [Compound 319]
LC50 CL [1]: 0.0007% | LC50 TBW E [2]: > 0.1% | LC50 HF [3]: 44 µg

CC(C)C(=Nc1ccc(F)c(Cl)c1)OCc1ccc(OCc2ccc(F)cc2)cc1 [Compound 487]
LC50 CL [1]: 0.023% | LC50 TBW E [2]: > 0.1% | LC50 HF [3]: > 100 µg

CCCCC(=Nc1ccc(F)c(Cl)c1)OCc1cccc(Oc2ccccc2)c1 [Compound 121]
LC50 CL [1]: 0.1% | LC50 TBW E [2]: > 0.1% | LC50 HF [3]: > 100 µg

CC(C)C(=Nc1ccc(Cl)c(Cl)c1)OCc1cccc(Oc2ccc(F)cc2F)c1 [Compound 213]
LC50 CL [1]: 0.00075% | LC50 TBW E [2]: > 0.1% | LC50 HF [3]: > 100 µg
